Experiment: Solubility comparison: recovery of RTX by HPLC after ambient and cold (5° C.) storage in various solutions
Format: physicochemical
Conditions: unmodified aqueous solution
Method: Independently of the formulations described in Example 1, a group of 12 surfactants was tested to compare the recovery of RTX based on HPLC analysis of samples following ambient and cold (5° C.) storage.

## C=C(C)[C@]12C[C@@H](C)[C@@]34O[C@](Cc5ccccc5)(O[C@@H]1[C@@H]3C=C(COC(=O)Cc1ccc(O)c(OC)c1)C[C@]1(O)C(=O)C(C)=C[C@@H]41)O2 [RTX, resiniferatoxin]
  solubility in water (in words): insolubility in water
